Results: patent publication EP1591123A1, “USES OF NARINGENIN, NARINGIN AND SALTS THEREOF AS EXPECTORANTS IN THE TREATMENT OF COUGH, AND COMPOSITIONS THEREOF” (Su, Wei-wei, priority 2003, dated 2004)
Structures can show the parent of a compound that is named as a salt.

Legend:
[1] = test system: NIH mice; assay: Antitussive test of Naringin, spraying with concentrated ammonia liquor (Example 28); format: in vivo; details: 0.2 ml/20g of 1.5 mg/ml
Description: 1.Animals: As the stock animals, totally 130 NIH mice, male, each weighed 18.2~21.7g within ordinary standard. Weigh and number each mice accurately first, then pick out the 120 healthy ones who weighed in range from 18.5~21.0g. Ranked in weigh, they were divided into 8 groups in random with each 15. Set up reference groups of negative and positive, and sample groups of high-dose, mid-dose, low-dose Naringin and sodium Naringinate.
• 1) Blank control group: physiological saline, 0.9% NaCl; • 2) Positive control group: 30 mg dextromethorphan hydrobromide was weighed into a 20ml volumetric flask, and physiological saline was accurately added to the volume to obtain the solution for positive control at concentration of 5mg/ml° • 3) Group of low-dose sample Naringin: Proper amount of Naringin was weighed into a suitable volumetric flask, and physiological saline was added to the volume to obtain the solution at concentration of 0.5mg/ml. • 4) Group of mid-dose sample Naringin: Proper amount of Naringin was weighed into a suitable volumetric flask, and physiological saline was added to the volume to obtain the solution at concentration of 1.5mg/ml. • 5) Group of high-dose sample Naringin: Proper amount of Naringin was weighed into a suitable volumetric flask, and physiological saline was added to the volume to obtain the solution at concentration of 4.5mg/ml. • 6) Group of low-dose sample sodium Naringinate: Proper amount of sodium Naringin was weighed into a suitable volumetric flask, and physiological saline was added to the volume to obtain the solution at concentration of 0.5mg/ml. • 7) Group of mid-dose sample sodium Naringinate: Proper amount of sodium Naringin was weighed into a suitable volumetric flask, and physiological saline was added to the volume to obtain the solution at concentration of 1.5mg/ml. • 8) Group of high-dose sample sodium Naringinate: Proper amount of sodium Naringin was weighed into a suitable volumetric flask, and physiological saline was added to the volume to obtain the solution at concentration of4.5mg/ml.
One hour after intra-gastrointestinal administering for the mice, spray with concentrated ammonia liquor for certain intervals. Immediately the spraying was over, put away the mice outside and observe the tussive action. Mark down the times for which they coughed within 1 minute. Only when they coughed, which was characteristic of compression of abdomen or chest with their mouths open, and making coughing noise, for more than 3 times within a minute, tussive action could be admitted.
Calculate the median effective dose(EDT50) with sequential trials. Work out the amount of R with the formula below. If R is greater than 130%, it means the drug will be effective on antitussive action. If R is greater than 150%, it means the drug will be remarkably effective on antitussive action. The formula is shown as below: R =(EDT50 of the treatmnet)/(EDT50 of the control)× 100% [formula] EDT50=log-1c/n(n for amount of animals, c for summation of rx, r for amount of animals in each group, x for logarithm of the dose (time for spraying) )

[2] = test system: mice; assay: Antitussive test of Naringenin, spray by high concentration ammonia (Example 30); format: in vivo; details: sample concentration 1.5 mg/ml
Description: 1. Animal: 120 healthy male mice weighing 19.5-22.1g was grouped into 8 groups random after labeled, which was selected from 130 male mice weighing 19.3-22.6g. Every group was 15 mice. Eight group were set including negative control group, positive control group, high dose group of Naringenin, middle dose group of Naringenin, low dose group of Naringenin, high dose group of sodium salt of Naringenin, middle dose group of sodium salt of Naringenin, low dose group of sodium salt of Naringenin.
• 1) Blank control group: physiological saline, 0.9% NaCl; • 2) Positive control group: 30mg Dextromethorphan Hydrobromide was dissolve into 20 ml physiological saline and the sample concentration was 1.5 mg/ml to obtain the solution for positive control. • 3) low dose group of Naringenin: weighting out the appropriate amount of Naringenin and dissolving it in physiological saline, then the sample concentration was 0.5 mg/ml. • 4) middle dose group of Naringenin: weighting out the appropriate amount of Naringenin and dissolving it in physiological saline, then the sample concentration was 1.5mg/ml. • 5) high dose group of Naringenin: weighting out the appropriate amount of Naringenin and dissolving it in physiological saline, then the sample concentration was 4.5 mg/ml. • 6) low dose group of sodium salt of Naringenin: weighting out the appropriate amount of sodium salt of Naringenin and dissolving it in physiological saline, then the sample concentration was 0.5 mg/ml. • 7) middle dose group of sodium salt of Naringenin: weighting out the appropriate amount of sodium salt of Naringenin and dissolving it in physiological saline, then the sample concentration was 1.5 mg/ml. • 8) high dose group of sodium salt of Naringenin: weighting out the appropriate amount of sodium salt of Naringenin and dissolving it in physiological saline, then the sample concentration was 4.5 mg/ml.
Animals were oral administered, and were sprayed one hour later. After the spray took out the animals and observed the tussive action. Observed the time of tussis in one minutes, if it appeared typical tussis three times in one minutes(shrinking the abdomen muscle or shrinking chest, puffing mouth at the same time, sometimes appearing tussive sound), we consider it "appearing tussis", otherwise "no tussis".
We calculated the spraying time that half of mice were tusisive by sequential method. And calculated the R, the drug was provided with effect of relieve a cough if R>130%. The drug was provided with remarkable effect of relieve a cough if R>150%. Underside is expressions: R=(EDT50 of the treatment)/(EDT50 of the control)× 100% [formula] EDT50=log^-1c/n ('n' is the number of animal, 'c' is the sum of 'rx' value, 'r' is the number of animal in every group, 'x' is the logarithm of dose(namely spray time).)

[3] = EDT50 of the treatment / EDT50 of the control x 100%

## COc1ccc2c(c1)[C@]13CCCC[C@@H]1[C@H](C2)N(C)CC3 [Dextromethorphan Hydrobromide, reference compound]
[1]
  Effect of relieving cough: effective (If R is greater than 130%, it means the drug will be effective on antitussive action)
[1]; [3]
  R Value: 140.23%
[1]; mice, intra-gastrointestinal, ammonia spray 1 hour after dosing
  EDT50: 56.82 s
[2]; [3]
  R Value: 138.05%
[2]; mice, oral, dose 0.2 (mg/20g), spray one hour later
  EDT50: 53.70 s
[2]
  Effect of relieving cough: effect (the drug was provided with effect of relieve a cough if R>130%)
